According to publication PMC4153969, “A Novel Suspension Formulation Enhances Intestinal Absorption of Macromolecules Via Transient and Reversible Transport Mechanisms” (Pharmaceutical Research, 2014):

What was measured:
[1] = in vivo
Protocol: Octreotide acetate in saline was also injected subcutaneously to this animal model.
The octreotide immunoassay is based on a single-step, extraction-free, simultaneous assay procedure (Peninsula Laboratories, Division of Bachem, San Carlos, CA) designed to quantify octreotide concentrations. Briefly, octreotide standards (0.05–6.25 ng/mL) and rat plasma samples were diluted 1:10 with PBS, followed by addition of octreotide anti-rabbit antiserum antibody, biotinylated octreotide tracer, and assay buffer. Samples were washed and incubated with streptavidin–HRP. Optical density was read at a dual absorbance of 450 nm and 630 nm using an Enzyme-Linked Immunoassay (ELISA) reader (Multiskan EX Labsystems; Thermo Electron Corporation, Milford, MA) after addition of TMB solution and acidic stopping solution.
Results were expressed as mean ± SE. The area under plasma concentration–time profile measured from time zero to the last measurable plasma concentration was calculated according to the linear trapezoidal rule. Relative enteral bioavailability (rBA) following intra-jejunal administration of the OS formulation to rats was calculated compared with SC injection as follows: rBA%=AUCjejunum/AUCSC×DoseSC/Dosejejunum×100

[2] = test system: Cynomolgus monkeys; experiment: 9-month chronic toxicity study, daily oral enteric-coated capsules; assay type: in vivo, Cynomolgus monkeys (Macaca fasicularis); conditions: compared to the negative control group (olive oil)
Protocol: During the dosing period, animals were fasted for 8 to 10 h prior to dosing, and the first feeding was given 2 h after dosing. Monkeys were observed twice daily for mortality, morbidity, and clinical signs of adverse health effects and qualitative food consumption. Weekly examinations were performed on each animal before drug administration and before terminal sacrifice. Pre-dose body weights were recorded (week −1) and weekly thereafter. Blood samples (~5 ml) were collected for hematology and serum chemistry from the femoral vein before drug administration and from surviving animals prior to the terminal necropsy.
A complete ophthalmic examination was performed on each monkey by a Diplomat of the American College of Veterinary Ophthalmologist veterinarian before animal selection/group assignment (pretest) and again, prior to study termination.
Electrocardiograms (ECGs) were obtained twice pre-study and were analyzed by a veterinary cardiologist for the presence of significant abnormalities. ECGs were also obtained following the 1st dose and at the 3, 6, and 9 months of dosing. Standard ECGs (10 Lead) were recorded at 50 mm/s. Using Lead II (or another appropriate lead), the RR, PR, and QT intervals, and QRS duration were measured and heart rate was determined. The QT interval was calculated using Bazett’s Rule. […]

[3] = in vivo; conditions: cynomolgus monkey, plasma, sc, 0.1 mg, plasma octreotide, SC injection 0.1 mg daily
Protocol: Enteric-coated capsules containing octreotide (20 mg)/OS or olive oil were administrated daily per os to fasted monkeys for 9 months, and swallowed with 10 mL water. In addition, a 1 mL ampule containing octreotide acetate at a concentration of 0.1 mg/mL (Sandostatin®, Novartis Pharmaceuticals, East Hanover, NJ) was administered by daily subcutaneous (SC) injection to another monkeys group. Oral administration of OS in rodent studies was limited due to the lack of properly enteric coated mini-gelatin capsules. Thus, the OS, containing fluorescent marker molecules (see below) or octreotide was enterally injected via implanted cannulas.
On Day 1 and after 3, 6 and 9 months, whole-blood samples (3.0 mL) were collected at routine intervals after completion of oral octreotide dosing. Plasma octreotide levels were determined by a validated liquid chromatographic spectrometric method (PPD Laboratories, Richmond, VA) as described elsewhere ([18]). The maximum plasma concentration (Cmax) and time to Cmax (Tmax) were derived from the data. The area under the curve (AUC) from zero to the last sample with a concentration ≥LOQ [AUC(0-t)] was calculated using the linear trapezoidal method. Analysis of plasma octreotide concentration vs. time was performed using SAS® for Windows® Version 9.3. The primary pharmacokinetic end point variables (Cmax and AUC0-t) were compared using analysis of variance (ANOVA) with treatment time (1, 180, 270-d) as a within-subject (repeated measures)-factor and sex as a between-subject factor.

With `C[C@@H](O)[C@@H]1NC(=O)[C@H](CCCCN)NC(=O)[C@@H](Cc2c[nH]c3ccccc23)NC(=O)[C@H](Cc2ccccc2)NC(=O)[C@@H](NC(=O)[C@H](N)Cc2ccccc2)CSSC[C@@H](C(=O)N[C@H](CO)[C@@H](C)O)NC1=O` [octreotide acetate] the AUC(0-t) ([1]; Sprague-Dawley, rat, plasma, sc, 0.172 mg/kg) was 0.205 µg·h/mL, the “change in rat plasma peptide concentrations” value ([1]; enteral dosing in saline solution without OS, data not shown) was “negligible changes” and the “clinical observation: hair and skin” value ([2]; both sexes) was “increased incidence of sparse hair and red discoloured skin”. For the same compound, the “clinical observation: feces” value [2] was “higher incidence of watery feces”, the AUC(0-t) ([3]; female, Day 1, female monkeys) was 0.0643 ± 0.0053 µg·h/mL and the AUC(0-t) ([3]; female, Day 180, female monkeys) was 0.0608 ± 0.0069 µg·h/mL. The AUC(0-t) ([3]; female, Day 270, female monkeys) was 0.0496 ± 0.003 µg·h/mL, the AUC(0-t) ([3]; male, Day 1, male monkeys) was 0.0417 ± 0.0086 µg·h/mL and the AUC(0-t) ([3]; male, Day 180, male monkeys) was 0.0462 ± 0.0054 µg·h/mL. It also gave an AUC(0-t) ([3]; male, Day 270, male monkeys) of 0.0513 ± 0.0113 µg·h/mL.
